IC50 data for 17 molecules are collected here from US11590134B2, “Aminopyrimidine amide autophagy inhibitors and methods of use thereof” (Deciphera Pharmaceuticals, LLC, priority 2019, dated 2023).

One assay addresses T1, ULK1 kinase (Homo sapiens, UniProt O75385).
T1 construct: purchased Eurofins 14-959
T1 sequence (O75385 with tags, fused parts or gaps): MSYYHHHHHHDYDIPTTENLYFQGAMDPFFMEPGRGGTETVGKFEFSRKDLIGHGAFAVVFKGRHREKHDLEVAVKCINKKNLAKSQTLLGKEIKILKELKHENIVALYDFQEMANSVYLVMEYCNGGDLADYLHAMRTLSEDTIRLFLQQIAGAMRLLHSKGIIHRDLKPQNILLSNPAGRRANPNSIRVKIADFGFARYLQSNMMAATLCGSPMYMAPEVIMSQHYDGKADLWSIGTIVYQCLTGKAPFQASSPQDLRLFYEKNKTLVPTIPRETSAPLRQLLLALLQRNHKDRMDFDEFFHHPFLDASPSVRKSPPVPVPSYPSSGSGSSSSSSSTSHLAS
Put plainly: Biochemical assay for ULK1.2 (coupled pyruvate kinase/lactate dehydrogenase assay). To be noted: 19 nM ULK1 (residues 1-314), myelin basic protein substrate, 1 mM ATP. On the procedure:
(§1) Activity of ULK1 kinase was determined spectroscopically using a coupled pyruvate kinase/lactate dehydrogenase assay that continuously monitors the ATP hydrolysis-dependent oxidation of NADH (e.g., Schindler et al. Science (2000) 289: 1938-1942). Assays were conducted in 384-well plates (100 uL final volume) using 19 nM ULK1 (Eurofins CAT #14-959), 0.25 mg/mL myelin basic protein, 1.5 units pyruvate kinase, 2.1 units lactate dehydrogenase, 1 mM phosphoenol pyruvate, 0.28 mM NADH and 1 mM ATP in assay buffer (100 mM Tris, pH 7.5, 15 mM MgCl2, 0.5 mM DTT, 0.1% octyl-glucoside, 0.002% (w/v) BSA, and 0.002% Triton X-100). Inhibition of ULK1 was measured by adding serial diluted test compound (final assay concentration of 1% DMSO). A decrease in absorption at 340 nm was monitored continuously for 6 hours at 30° C. on a multi-mode microplate reader (BioTek). The reaction rate was calculated using the 2-3 h time frame. The reaction rate at each concentration of compound was converted to percent inhibition using controls (i.e. reaction with no test compound and reaction with a known inhibitor) and IC50 values were calculated by fitting a four-parameter sigmoidal curve to the data using Prism (GraphPad software).

Assay [1] deals with ULK kinase substrate ATG13 (phospho-Serine 318 ATG13) in A549 cells. Description: pATG13 ELISA in mutant KRas A549 cells in combination with trametinib. Type of assay: cell-based. The following applies: A549 (KRAS mutant) human lung cancer cells, with 250 nM trametinib, overnight. The protocol:
A549 (KRAS mutant) human lung cancer cells (6,000 cells/well) were added to a 384-well tissue-culture treated plate in 50 μL of pre-warmed DMEM medium supplemented with 10% characterized fetal bovine serum (Invitrogen, Carlsbad, Calif.), 100 units/mL penicillin G, and 100 μg/mL streptomycin and allowed to grow overnight at 37° C., 5% CO2, and 95% humidity. The following day, 10 μL of media containing trametinib or DMSO as a control was added to wells. The final concentration of trametinib in wells was 250 nM. A dose response of a test compound (0.6 μL per well) was added. DMSO (0.6 μL) was added to control wells. The plate was briefly shaken to mix wells and then incubated at 37° C. overnight. The next day, the media was aspirated and cells were washed with Dulbecco's Phosphate Buffered Saline (Gibco). Cells were lysed using MPER lysis buffer (Pierce, Rockford, Ill.) containing Halt Phosphatase and Protease Inhibitors (Pierce, Rockford, Ill.) and Phosphatase inhibitor cocktail 2 (Sigma, St. Louis, Mo.) at 4° C. for 10 minutes with shaking.
Cellular levels of phospho-Serine 318 ATG13 (pATG13) were measured via an ELISA method. Total ATG13 Antibody (Cell Signaling Cat #13273) was used to coat the wells. The plate was incubated at 4° C. overnight and washed with ELISA wash buffer (Biolegend Cat #421601). The wells were then blocked with assay diluent (Biolegend Cat #421203) for 1 hour at room temperature. Plate wells were washed with ELISA wash buffer. Cell lysate was added to wells and incubated at room temperature for 2 hours. Plate wells were washed with ELISA wash buffer. Biotinylated pS318-ATG13 antibody (Rockland Immunochemicals Cat #600-401-C49) was diluted in assay diluent and added to each well and incubated at room temperature for 1 hour. Plate wells were washed with ELISA wash buffer. Streptavidin linked to horseradish peroxidase (Thermo Fisher Cat #21140) was diluted in assay diluent and added to each well and incubated at room temperature for 1 hour. Plate wells were washed with ELISA wash buffer. High sensitivity TMB substrate (Biolegend Cat #421101) was added to each well and incubated at room temperature for 20 minutes. The reaction was stopped with 2N Sulfuric Acid. The plate was analyzed at on a plate reader measuring absorbance at 450 nm and 540 nm (background). Signal was calculated by first subtracting the background absorbance at 540 nm from the absorbance at 450 nm for each well. Next, the background corrected absorbance at 450 nm from blank wells was subtracted from test wells. Data was compared to control wells to determine % ATG13 phosphorylation. GraphPad Prism was used to calculate IC50 values.

The next assay has as its target T2, LRRK2 kinase (Homo sapiens, UniProt Q5S007).
T2 construct: (residues 970-2528; ID NO; 4); purchased Thermo Fisher
Description: Biochemical assay for LRRK2 (coupled pyruvate kinase/lactate dehydrogenase assay). To be noted: 26.4 nM LRRK2 (residues 970-2528), peptide substrate, 1 mM ATP. The protocol: Activity of LRRK2 kinase was determined spectroscopically using a coupled pyruvate kinase/lactate dehydrogenase assay that continuously monitors the ATP hydrolysis-dependent oxidation of NADH (e.g., Schindler et al. Science (2000) 289: 1938-1942). Assays were conducted in 384-well plates (100 uL final volume) using 26.4 nM LRRK2 (Thermo Fisher), 0.1 mM peptide substrate (RLGRDKYKTLRQIRQ (SEQ ID NO: 6)), 1.5 units pyruvate kinase, 2.1 units lactate dehydrogenase, 1 mM phosphoenol pyruvate, 0.28 mM NADH and 1 mM ATP in assay buffer (100 mM Tris, pH 7.5, 15 mM MgCl2, 0.5 mM DTT, 0.004% (w/v) BSA, and 0.004% Triton X-100). Inhibition of LRRK2 was measured by adding serial diluted test compound (final assay concentration of 1% DMSO). A decrease in absorption at 340 nm was monitored continuously for 6 hours at 30° C. on a multi-mode microplate reader (BioTek). The reaction rate was calculated using the 2-3 h time frame. The reaction rate at each concentration of compound was converted to percent inhibition using controls (i.e. reaction with no test compound and reaction with a known inhibitor) and IC50 values were calculated using software routines in Prism (GraphPad software).

Another assay addresses T3, ULK2 kinase (Homo sapiens, UniProt Q8IYT8).
T3 construct: purchased Eurofins 14-772
Put plainly: Biochemical assay for ULK2 (coupled pyruvate kinase/lactate dehydrogenase assay). The following applies: 9.7 nM ULK2 (residues 1-306), myelin basic protein substrate, 1 mM ATP; read-out: ULK2.2. On the procedure: as §1, with “of ULK2” for “of ULK1”, “using 9.7” for “using 19”, “nM ULK2” for “nM ULK1”, “CAT #14-772),” for “CAT #14-959),”

T3 sequence (Q8IYT8 with tags, fused parts or gaps): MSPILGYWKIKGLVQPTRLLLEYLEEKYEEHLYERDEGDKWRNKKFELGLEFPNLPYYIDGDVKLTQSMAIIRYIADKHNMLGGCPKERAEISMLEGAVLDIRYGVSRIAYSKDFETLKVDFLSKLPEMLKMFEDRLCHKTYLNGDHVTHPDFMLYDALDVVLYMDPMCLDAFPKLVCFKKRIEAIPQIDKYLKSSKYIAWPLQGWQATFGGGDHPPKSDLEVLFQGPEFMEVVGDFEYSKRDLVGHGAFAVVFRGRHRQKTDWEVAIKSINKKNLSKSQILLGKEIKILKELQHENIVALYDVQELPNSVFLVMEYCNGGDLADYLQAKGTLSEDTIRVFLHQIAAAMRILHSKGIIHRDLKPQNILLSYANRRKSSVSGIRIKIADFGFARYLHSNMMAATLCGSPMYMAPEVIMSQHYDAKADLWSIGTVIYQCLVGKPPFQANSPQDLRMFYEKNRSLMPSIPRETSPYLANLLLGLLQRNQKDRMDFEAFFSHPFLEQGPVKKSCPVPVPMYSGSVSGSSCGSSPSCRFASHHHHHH
T2 sequence (Q5S007 with tags, fused parts or gaps): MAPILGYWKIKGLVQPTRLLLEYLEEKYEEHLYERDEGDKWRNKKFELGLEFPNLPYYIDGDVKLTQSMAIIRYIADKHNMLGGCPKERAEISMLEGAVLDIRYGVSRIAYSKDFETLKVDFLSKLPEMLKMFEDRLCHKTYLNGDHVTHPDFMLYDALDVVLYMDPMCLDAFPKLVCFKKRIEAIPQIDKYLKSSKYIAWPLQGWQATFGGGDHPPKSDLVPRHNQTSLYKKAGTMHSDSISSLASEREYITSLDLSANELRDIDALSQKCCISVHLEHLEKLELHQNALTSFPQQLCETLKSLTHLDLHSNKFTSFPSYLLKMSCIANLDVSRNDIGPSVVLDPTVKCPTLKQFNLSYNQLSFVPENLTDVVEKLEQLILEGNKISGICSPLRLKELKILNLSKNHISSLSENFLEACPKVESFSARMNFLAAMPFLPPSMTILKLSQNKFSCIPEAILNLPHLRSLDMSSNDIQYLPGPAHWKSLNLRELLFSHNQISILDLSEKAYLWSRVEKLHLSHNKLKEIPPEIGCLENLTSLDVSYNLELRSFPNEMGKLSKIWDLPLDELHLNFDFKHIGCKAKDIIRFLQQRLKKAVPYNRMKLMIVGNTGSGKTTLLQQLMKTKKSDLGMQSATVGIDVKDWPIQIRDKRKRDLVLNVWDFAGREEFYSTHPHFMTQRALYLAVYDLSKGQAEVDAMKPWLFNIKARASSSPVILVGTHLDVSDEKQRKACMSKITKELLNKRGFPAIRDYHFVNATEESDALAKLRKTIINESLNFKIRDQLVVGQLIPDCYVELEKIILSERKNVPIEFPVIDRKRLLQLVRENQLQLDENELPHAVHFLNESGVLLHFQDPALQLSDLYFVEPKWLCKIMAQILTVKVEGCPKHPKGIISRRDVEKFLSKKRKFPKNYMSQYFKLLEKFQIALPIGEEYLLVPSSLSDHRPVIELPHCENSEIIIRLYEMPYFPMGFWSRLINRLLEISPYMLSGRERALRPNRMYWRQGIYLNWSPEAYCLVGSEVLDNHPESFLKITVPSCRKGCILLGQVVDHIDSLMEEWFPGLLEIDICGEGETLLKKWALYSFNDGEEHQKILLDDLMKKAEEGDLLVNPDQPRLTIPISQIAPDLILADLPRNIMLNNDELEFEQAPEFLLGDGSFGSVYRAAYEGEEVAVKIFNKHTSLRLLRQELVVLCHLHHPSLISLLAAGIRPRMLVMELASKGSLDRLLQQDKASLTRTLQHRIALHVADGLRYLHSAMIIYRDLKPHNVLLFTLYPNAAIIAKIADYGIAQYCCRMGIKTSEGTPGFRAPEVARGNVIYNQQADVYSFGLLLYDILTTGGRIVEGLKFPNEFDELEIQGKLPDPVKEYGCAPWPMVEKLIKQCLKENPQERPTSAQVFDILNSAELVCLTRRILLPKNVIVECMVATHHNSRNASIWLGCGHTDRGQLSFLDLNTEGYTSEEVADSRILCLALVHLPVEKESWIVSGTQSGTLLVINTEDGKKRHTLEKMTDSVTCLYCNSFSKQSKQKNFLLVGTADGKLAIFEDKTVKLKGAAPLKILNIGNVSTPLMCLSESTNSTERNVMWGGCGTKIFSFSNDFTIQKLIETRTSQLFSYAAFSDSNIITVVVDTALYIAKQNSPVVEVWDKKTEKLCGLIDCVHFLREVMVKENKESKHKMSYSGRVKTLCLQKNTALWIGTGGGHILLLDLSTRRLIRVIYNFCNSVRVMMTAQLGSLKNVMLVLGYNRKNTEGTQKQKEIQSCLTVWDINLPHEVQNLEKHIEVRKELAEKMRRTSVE

Consider `Cc1cc(N2CCN(C)CC2)ccc1Nc1ncc(C(F)(F)F)c(NCCCNC(=O)C2CCC2)n1` [Example 2], for which the IC50 against ULK1 kinase was in the range of 1 to 25 nM; in assay [1], 100 to 300 nM; against LRRK2 kinase, 1 to 100 nM.
Consider `Cc1cc(N2CCN(C)CC2)ncc1Nc1ncc(C(F)(F)F)c(NCCCNC(=O)C2CCC2)n1` [Example 5], for which the IC50 lay in the range of 100 to 500 nM on ULK1 kinase, 100 to 500 nM at ULK2 kinase and 600 to 20000 nM against LRRK2 kinase.
Turning to `Cc1cc(N2CCOCC2)ncc1Nc1ncc(C(F)(F)F)c(NCCCNC(=O)C2CCC2)n1` [Example 6], the results for the IC50 against ULK1 kinase, on ULK2 kinase and against LRRK2 kinase were 500 to 20000 nM, 500 to 20000 nM and 300 to 600 nM, respectively.
`COc1cc(N2CCN(C)CC2)ccc1Nc1ncc(C2CC2)c(NCCCNC(=O)C2CCC2)n1` [Example 11]: the IC50 on ULK1 kinase lay within 500 to 20000 nM; against LRRK2 kinase, 600 to 20000 nM.
The matching figures for `Cc1cc(C2CCNCC2)ccc1Nc1ncc(Cl)c(NCCCN(C)C(=O)C2CCC2)n1` [Example 15]: 100 to 500 nM and 1 to 100 nM.
In the case of `Cc1cc(C2CCNCC2)ccc1Nc1ncc(C(F)(F)F)c(NCCCN(C)C(=O)C2CCC2)n1` [Example 16], the IC50 lay in the range of 1 to 25 nM at ULK1 kinase, 25 to 100 nM on ULK2 kinase, 100 to 300 nM in assay [1] and 1 to 100 nM against LRRK2 kinase.
For `Cc1cc(C2CCN(C)CC2)ccc1Nc1ncc(Cl)c(NCCCN(C)C(=O)C2CCC2)n1` [Example 17], the values for the IC50 against ULK1 kinase and at LRRK2 kinase were 100 to 500 nM and 1 to 100 nM, respectively.
The matching figures for `Cc1cc(C2CCN(C)CC2)ccc1Nc1ncc(C(F)(F)F)c(NCCCN(C)C(=O)C2CCC2)n1` [Example 18]: 1 to 25 nM and 1 to 100 nM.
Consider `[2H]C([2H])([2H])N1CCC(n2cc(Nc3ncc(C(F)(F)F)c(NCCCNC(=O)C4CCC4)n3)c(C)n2)CC1` [Example 20], for which the IC50 at ULK1 kinase was in the range of 1 to 25 nM; at ULK2 kinase, 25 to 100 nM; in assay [1], 100 to 300 nM; at LRRK2 kinase it was 100 to 300 nM.
With `Cc1nn(C2CCNCC2)cc1Nc1ncc(C(F)(F)F)c(NCCCNC(=O)C2CCC2)n1` [Example 21, N-(3-((2-((3-methyl-1-(piperidin-4-yl)-1H-pyrazol-4-yl)amino)-5-(trifluoromethyl)pyrimidin-4-yl)amino)propyl)cyclobutanecarboxamide], the IC50 on ULK1 kinase is 1 to 25 nM; on ULK2 kinase, 25 to 100 nM; in assay [1], 100 to 300 nM; against LRRK2 kinase, 1 to 100 nM.
As for `Cc1nn(C2CCN(C(C)C)CC2)cc1Nc1ncc(C(F)(F)F)c(NCCCNC(=O)C2CCC2)n1` [Example 22, N-(3-((2-((1-(1-isopropylpiperidin-4-yl)-3-methyl-1H-pyrazol-4-yl)amino)-5-(trifluoromethyl)pyrimidin-4-yl)amino)propyl)cyclobutanecarboxamide], the IC50 was in the range of 25 to 100 nM against ULK1 kinase, 300 to 600 nM in assay [1] and 1 to 100 nM on LRRK2 kinase.
Consider `Cc1nn(C2CCN(CC(C)C)CC2)cc1Nc1ncc(C(F)(F)F)c(NCCCNC(=O)C2CCC2)n1` [Example 23], for which the IC50 at ULK1 kinase fell in the range of 1 to 25 nM; on ULK2 kinase, 25 to 100 nM; in assay [1] it was 10 to 100 nM; on LRRK2 kinase, 1 to 100 nM.
As to `Cc1nn(C2CCNCC2)cc1Nc1ncc(C2CC2)c(NCCCNC(=O)C2CCC2)n1` [Example 24], the IC50 lay in the range of 100 to 500 nM against ULK1 kinase and 600 to 20000 nM against LRRK2 kinase.
The like results for `Cc1nn(C2CCN(C)CC2)cc1Nc1ncc(C2CC2)c(NCCCNC(=O)C2CCC2)n1` [Example 25] were, in that order, 100 to 500 nM and 600 to 20000 nM.
In the case of `Cc1nn(C2CCN(C)CC2)cc1Nc1ncc(Cl)c(NCCCN(C)C(=O)C2CCC2)n1` [Example 27], the IC50 on ULK1 kinase lay within 1 to 25 nM; on ULK2 kinase, 25 to 100 nM; against LRRK2 kinase, 1 to 100 nM.
Regarding `[2H]C([2H])([2H])N1CCC(n2cc(Nc3ncc(Br)c(NCCCNC(=O)C4CCC4)n3)c(C)n2)CC1` [Example 29], the figures for the IC50 against ULK1 kinase and at LRRK2 kinase were 25 to 100 nM and 100 to 300 nM, respectively.
`Cc1cc(N2CCN(C)CC2)ncc1Nc1cc(NCCCNC(=O)C2CCC2)c(C(F)(F)F)cn1` [Example 31, N-(3-((2-((4-methyl-6-(4-methylpiperazin-1-yl)pyridin-3-yl)amino)-5-(trifluoromethyl)pyridin-4-yl)amino)propyl)cyclobutanecarboxamide]: on ULK1 kinase, the IC50 was in the range of 100 to 500 nM.
